This note sets out measurements from paper PMC7066191, “Exploiting loss of heterozygosity for allele-selective colorectal cancer chemotherapy” (Nature Communications, 2020).

By Kd is commonly meant the constant that tells how readily two partners part at equilibrium.

The structures appear in SMILES notation.

One assay addresses FLT4 (Homo sapiens, UniProt P35916). The experiment in a line: biochemical. On the set-up: scanMAX competition binding; kinase recovered on immobilized ligand quantified by qPCR, per cent of control. The following applies: read-out: APA (POC). Here is the method:
(§1) The binding affinities of APA and NAPA were evaluated in the scanMAX^sm Kinase Assay Panel (DiscoverX) at a final concentration of 10 µM. The compounds were tested for steric or allosteric binding to kinases in solution. The kinase was captured from the solution through an immobilized kinase-specific ligand and the kinase recovery was quantified. The amount of recovered kinase in the presence or absence of APA or NAPA was measured by quantitative PCR compared with the kinase capture in absence of the compound. Any compound reducing the binding affinity of a kinase to the respective immobilized ligand was scored as a potential hit, and the binding affinity of the compound toward a kinase is interpreted as the difference between the kinase recovery in the absence and presence of the compound. The inhibitory binding constants (Kd) of APA and NAPA to AURKA were evaluated in a KdELECT Kinase Assay (DiscoverX). […] Data acquisition followed the same methodology as for the scanMAX^sm Kinase Assay Panel. 6 Supplementary Figure 4. Kinome inhibition profiles of APA and its NAT2 metabolite NAPA identifies preferential APA kinase targets and differential binding to AURKA a The human kinome was assessed for binding affinity to APA and NAPA at 10 µM concentration (468 kinases in the scanMAX Kinase Assay Panel, DiscoverX). The family stratification of kinases is shown as a cladogram. Circles visualize the binding affinity of NAPA and APA towards each kinase with a higher intensity of blue corresponding to a higher binding affinity. […] One single data point from one experiment at a concentration 18.5 µM of APA was excluded as an outlier. c Thermal shift assay for human recombinant AURKA in the presence of APA and the selective inhibitor S1451. Melting temperatures were obtained by calculating the first derivative of the tryptophan fluorescence ratio at 350 nm and 330 nm and are shown for AURKA in the presence of S1451 (blue) and APA (yellow). Structural similarities between APA and kinase inhibitors[27] prompted investigation of protein kinases as mediators of APA toxicity. […] To enrich for kinase interactions that could explain the preferential killing of slow NAT2 cells, we compared the binding affinity of each kinase with APA and NAPA, selected 44 targets with preferential binding to APA and excluded kinases non-essential for cell survival and those not expressed in CRC cells (Supplementary Fig. 4A, Supplementary Table 4). […] The growth inhibition of RKO and DLD-1 following siRNA-mediated AURKA knockdown (Figs. 3c, d) reflected the relative efficiency of protein downregulation (Supplementary Fig. 5C, D). […] (Supplementary Fig. 4C). AURKA regulates cell cycle progression through association with other centrosome and spindle-associated proteins. Its activation requires auto-phosphorylation at Thr288 and ensures spindle pole integrity, centrosome duplication as well as adequate chromosomal alignment and segregation, while its inhibition leads to multipolar spindles with acentrosomal poles[28],[31]. […] S1451 reduced the fraction of pAURKA levels by >90% regardless of NAT2 expression (Fig. 3f and Su

A further assay concerns the target CLK4 (Homo sapiens, UniProt Q9HAZ1). The experiment in a line: biochemical. On the set-up: scanMAX competition binding; kinase recovered on immobilized ligand quantified by qPCR, per cent of control. The following applies: read-out: APA (POC). The protocol:
as §1

For a further assay, the target named is CLK2 (Homo sapiens, UniProt P49760). The experiment in a line: biochemical. On the set-up: scanMAX competition binding; kinase recovered on immobilized ligand quantified by qPCR, per cent of control. The following applies: read-out: APA (POC). Here is the method: as §1
The target of another assay is HIPK1 (Homo sapiens, UniProt Q86Z02). Put plainly: biochemical. On the set-up: scanMAX competition binding; kinase recovered on immobilized ligand quantified by qPCR, per cent of control. The following applies: read-out: APA (POC). Here is the method: as §1
The target in a further assay is HIPK3 (Homo sapiens, UniProt Q9H422). Put plainly: biochemical. Also noted: scanMAX competition binding; kinase recovered on immobilized ligand quantified by qPCR, per cent of control. To be noted: read-out: APA (POC). Here is the method:
as §1

The next assay concerns the target MAST1 (Homo sapiens, UniProt Q9Y2H9). Put plainly: biochemical. Also noted: scanMAX competition binding; kinase recovered on immobilized ligand quantified by qPCR, per cent of control. To be noted: read-out: APA (POC). Here is the method:
as §1

Another assay addresses IRAK3 (Homo sapiens, UniProt Q9Y616). The experiment in a line: biochemical. On the set-up: scanMAX competition binding; kinase recovered on immobilized ligand quantified by qPCR, per cent of control. The following applies: read-out: APA (POC). The protocol:
as §1

A further assay addresses NEK10 (Homo sapiens, UniProt Q6ZWH5). Put plainly: biochemical. Also noted: scanMAX competition binding; kinase recovered on immobilized ligand quantified by qPCR, per cent of control. The following applies: read-out: APA (POC). The protocol: as §1
A further assay addresses T1, JAK3_JH1 (Homo sapiens, UniProt P52333).
T1 construct: gene JAK3; JH1 domain
The experiment in a line: biochemical. Also noted: scanMAX competition binding; kinase recovered on immobilized ligand quantified by qPCR, per cent of control. The following applies: read-out: APA (POC). The protocol:
as §1

Another assay addresses MAP3K11 (Homo sapiens, UniProt Q16584). The experiment in a line: biochemical. On the set-up: scanMAX competition binding; kinase recovered on immobilized ligand quantified by qPCR, per cent of control. The following applies: read-out: APA (POC). The protocol: as §1
The target of the next assay is MAP3K9 (Homo sapiens, UniProt P80192). The experiment in a line: biochemical. On the set-up: scanMAX competition binding; kinase recovered on immobilized ligand quantified by qPCR, per cent of control. The following applies: read-out: APA (POC). Here is the method: as §1
The next assay concerns the target CSNK2A2 (Homo sapiens, UniProt P19784). The experiment in a line: biochemical. On the set-up: scanMAX competition binding; kinase recovered on immobilized ligand quantified by qPCR, per cent of control. The following applies: read-out: APA (POC). Here is the method: as §1
In the next assay the target is HIPK2 (Homo sapiens, UniProt Q9H2X6). Put plainly: biochemical. The following applies: read-out: APA (POC). On the set-up: scanMAX competition binding; kinase recovered on immobilized ligand quantified by qPCR, per cent of control. Here is the method: as §1
The target of another assay is T2, ZAK (Homo sapiens, UniProt Q9NYL2).
T2 construct: gene MAP3K20
The experiment in a line: biochemical. The following applies: read-out: APA (POC). Also noted: scanMAX competition binding; kinase recovered on immobilized ligand quantified by qPCR, per cent of control. Here is the method: as §1

A further assay has as its target T3, N-acetyltransferase 2 (Homo sapiens, UniProt P11245).
T3 construct: gene NAT2
The experiment in a line: recombinant human NAT2 acetylation kinetics, LC-MS/MS of NAPA. The format is biochemical.

Another assay has as its target T4, Aurora kinase A (Homo sapiens, UniProt O14965).
T4 construct: gene AURKA
Put plainly: KdELECT competition binding (DiscoverX), 11-point; nanoDSF thermal shift. Background: Differential scanning fluorimetry follows unfolding on heating by fluorescence.

T4 sequence (O14965 whole entry): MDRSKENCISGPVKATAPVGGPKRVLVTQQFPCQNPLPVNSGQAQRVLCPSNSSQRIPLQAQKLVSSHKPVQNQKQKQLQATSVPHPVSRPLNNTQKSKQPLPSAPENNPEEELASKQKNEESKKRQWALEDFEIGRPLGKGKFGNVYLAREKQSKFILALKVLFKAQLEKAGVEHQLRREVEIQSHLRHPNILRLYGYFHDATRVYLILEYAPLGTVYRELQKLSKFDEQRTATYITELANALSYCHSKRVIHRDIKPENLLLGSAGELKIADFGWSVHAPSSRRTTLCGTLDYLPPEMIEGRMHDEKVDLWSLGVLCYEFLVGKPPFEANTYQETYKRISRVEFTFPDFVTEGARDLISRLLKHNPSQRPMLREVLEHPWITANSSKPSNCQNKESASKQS
Chain of MAST1 (Q9Y2H9 whole entry): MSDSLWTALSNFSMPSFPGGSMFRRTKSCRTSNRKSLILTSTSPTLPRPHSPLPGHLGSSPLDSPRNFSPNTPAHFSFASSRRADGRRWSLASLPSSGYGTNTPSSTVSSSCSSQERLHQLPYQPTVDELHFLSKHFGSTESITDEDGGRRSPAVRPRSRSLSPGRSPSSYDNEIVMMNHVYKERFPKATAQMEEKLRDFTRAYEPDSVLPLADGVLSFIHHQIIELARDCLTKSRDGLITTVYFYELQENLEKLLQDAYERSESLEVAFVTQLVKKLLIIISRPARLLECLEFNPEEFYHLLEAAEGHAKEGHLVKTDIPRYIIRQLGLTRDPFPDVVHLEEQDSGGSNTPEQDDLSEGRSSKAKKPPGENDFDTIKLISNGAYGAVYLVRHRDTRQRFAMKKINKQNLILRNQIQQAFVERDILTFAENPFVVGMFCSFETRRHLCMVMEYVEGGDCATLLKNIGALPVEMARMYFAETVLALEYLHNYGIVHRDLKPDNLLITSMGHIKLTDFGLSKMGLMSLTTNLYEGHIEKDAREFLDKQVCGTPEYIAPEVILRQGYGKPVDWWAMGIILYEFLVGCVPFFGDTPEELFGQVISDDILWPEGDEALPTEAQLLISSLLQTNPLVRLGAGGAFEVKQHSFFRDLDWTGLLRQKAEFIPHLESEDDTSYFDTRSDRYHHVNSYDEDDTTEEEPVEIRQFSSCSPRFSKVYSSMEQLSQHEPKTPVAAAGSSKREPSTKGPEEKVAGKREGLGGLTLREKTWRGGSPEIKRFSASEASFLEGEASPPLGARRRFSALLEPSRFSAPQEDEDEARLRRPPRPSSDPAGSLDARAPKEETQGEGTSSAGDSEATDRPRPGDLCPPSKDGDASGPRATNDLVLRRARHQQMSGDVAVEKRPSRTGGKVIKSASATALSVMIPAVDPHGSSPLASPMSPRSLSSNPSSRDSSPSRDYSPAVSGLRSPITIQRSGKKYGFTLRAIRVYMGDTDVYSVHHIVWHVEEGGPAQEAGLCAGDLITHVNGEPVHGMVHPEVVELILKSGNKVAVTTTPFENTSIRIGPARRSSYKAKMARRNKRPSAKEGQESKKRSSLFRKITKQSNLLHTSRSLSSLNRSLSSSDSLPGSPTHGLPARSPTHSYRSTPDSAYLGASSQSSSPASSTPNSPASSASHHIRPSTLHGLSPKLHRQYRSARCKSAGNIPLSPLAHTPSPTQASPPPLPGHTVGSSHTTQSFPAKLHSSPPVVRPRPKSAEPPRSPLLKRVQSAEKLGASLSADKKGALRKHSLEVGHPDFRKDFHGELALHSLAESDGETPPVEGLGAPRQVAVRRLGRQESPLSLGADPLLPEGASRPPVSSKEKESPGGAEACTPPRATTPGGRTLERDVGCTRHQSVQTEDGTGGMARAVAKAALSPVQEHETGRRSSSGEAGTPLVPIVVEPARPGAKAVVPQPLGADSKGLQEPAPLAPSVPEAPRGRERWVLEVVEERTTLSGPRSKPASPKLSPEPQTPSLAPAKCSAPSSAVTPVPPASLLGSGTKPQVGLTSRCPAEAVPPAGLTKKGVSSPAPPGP
Chain of HIPK3 (Q9H422 whole entry): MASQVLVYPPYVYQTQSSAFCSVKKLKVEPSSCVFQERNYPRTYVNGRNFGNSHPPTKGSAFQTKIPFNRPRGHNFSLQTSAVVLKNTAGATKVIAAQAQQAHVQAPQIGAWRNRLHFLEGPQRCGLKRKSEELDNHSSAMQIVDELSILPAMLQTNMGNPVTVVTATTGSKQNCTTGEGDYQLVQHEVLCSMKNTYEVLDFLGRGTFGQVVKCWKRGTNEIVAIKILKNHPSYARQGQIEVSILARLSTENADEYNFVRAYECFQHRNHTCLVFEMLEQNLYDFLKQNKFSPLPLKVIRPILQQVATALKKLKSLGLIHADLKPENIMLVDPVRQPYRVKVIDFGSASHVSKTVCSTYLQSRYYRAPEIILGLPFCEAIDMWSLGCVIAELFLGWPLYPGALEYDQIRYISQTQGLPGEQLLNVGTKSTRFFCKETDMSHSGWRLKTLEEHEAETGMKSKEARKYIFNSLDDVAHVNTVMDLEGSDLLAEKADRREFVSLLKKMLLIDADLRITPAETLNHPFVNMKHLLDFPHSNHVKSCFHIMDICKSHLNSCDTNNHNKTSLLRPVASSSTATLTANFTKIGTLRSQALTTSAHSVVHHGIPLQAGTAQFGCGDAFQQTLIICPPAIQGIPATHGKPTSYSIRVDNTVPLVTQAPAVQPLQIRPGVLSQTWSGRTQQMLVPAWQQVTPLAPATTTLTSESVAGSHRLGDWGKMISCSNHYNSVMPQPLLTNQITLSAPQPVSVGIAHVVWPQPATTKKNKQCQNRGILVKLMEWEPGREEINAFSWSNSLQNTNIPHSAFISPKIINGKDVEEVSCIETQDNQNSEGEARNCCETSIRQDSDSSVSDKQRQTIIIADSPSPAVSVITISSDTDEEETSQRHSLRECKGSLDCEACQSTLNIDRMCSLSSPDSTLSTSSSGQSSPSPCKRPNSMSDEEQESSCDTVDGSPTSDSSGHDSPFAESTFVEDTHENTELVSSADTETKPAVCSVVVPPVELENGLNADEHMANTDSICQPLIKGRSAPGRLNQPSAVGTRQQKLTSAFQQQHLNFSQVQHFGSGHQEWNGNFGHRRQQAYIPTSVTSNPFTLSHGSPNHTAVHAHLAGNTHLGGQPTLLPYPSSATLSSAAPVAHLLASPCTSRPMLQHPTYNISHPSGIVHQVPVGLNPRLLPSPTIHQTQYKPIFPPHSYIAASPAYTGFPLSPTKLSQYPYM
Chain of MAP3K9 (P80192 whole entry): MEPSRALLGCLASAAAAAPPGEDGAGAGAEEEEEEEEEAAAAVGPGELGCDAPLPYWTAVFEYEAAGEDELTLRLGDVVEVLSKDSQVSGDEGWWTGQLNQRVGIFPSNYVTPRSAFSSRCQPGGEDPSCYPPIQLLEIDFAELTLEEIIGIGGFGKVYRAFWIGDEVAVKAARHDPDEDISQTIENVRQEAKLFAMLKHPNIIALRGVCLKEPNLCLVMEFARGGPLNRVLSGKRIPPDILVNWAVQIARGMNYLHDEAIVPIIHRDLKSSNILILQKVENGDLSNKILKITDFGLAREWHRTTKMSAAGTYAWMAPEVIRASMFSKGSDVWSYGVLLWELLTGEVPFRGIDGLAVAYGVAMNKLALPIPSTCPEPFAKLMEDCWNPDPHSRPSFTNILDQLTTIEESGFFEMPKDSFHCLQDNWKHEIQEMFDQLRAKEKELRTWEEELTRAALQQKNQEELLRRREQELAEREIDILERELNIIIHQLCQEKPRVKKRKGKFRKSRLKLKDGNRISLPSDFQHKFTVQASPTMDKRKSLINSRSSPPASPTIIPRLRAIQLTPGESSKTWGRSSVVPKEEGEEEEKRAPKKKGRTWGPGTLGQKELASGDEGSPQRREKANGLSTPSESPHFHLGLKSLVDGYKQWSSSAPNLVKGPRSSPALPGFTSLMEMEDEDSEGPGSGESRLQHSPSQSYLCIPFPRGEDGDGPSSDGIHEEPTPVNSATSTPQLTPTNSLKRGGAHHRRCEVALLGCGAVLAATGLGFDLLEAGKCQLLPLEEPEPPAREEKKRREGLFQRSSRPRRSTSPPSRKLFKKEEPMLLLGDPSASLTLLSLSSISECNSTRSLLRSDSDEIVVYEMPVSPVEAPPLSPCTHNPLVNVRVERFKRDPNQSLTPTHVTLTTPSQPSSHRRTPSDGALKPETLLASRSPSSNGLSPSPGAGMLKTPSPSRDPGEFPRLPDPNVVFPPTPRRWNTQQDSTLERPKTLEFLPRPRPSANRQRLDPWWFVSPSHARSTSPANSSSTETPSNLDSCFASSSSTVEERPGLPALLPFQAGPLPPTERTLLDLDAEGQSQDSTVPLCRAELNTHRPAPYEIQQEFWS
Chain of IRAK3 (Q9Y616 whole entry): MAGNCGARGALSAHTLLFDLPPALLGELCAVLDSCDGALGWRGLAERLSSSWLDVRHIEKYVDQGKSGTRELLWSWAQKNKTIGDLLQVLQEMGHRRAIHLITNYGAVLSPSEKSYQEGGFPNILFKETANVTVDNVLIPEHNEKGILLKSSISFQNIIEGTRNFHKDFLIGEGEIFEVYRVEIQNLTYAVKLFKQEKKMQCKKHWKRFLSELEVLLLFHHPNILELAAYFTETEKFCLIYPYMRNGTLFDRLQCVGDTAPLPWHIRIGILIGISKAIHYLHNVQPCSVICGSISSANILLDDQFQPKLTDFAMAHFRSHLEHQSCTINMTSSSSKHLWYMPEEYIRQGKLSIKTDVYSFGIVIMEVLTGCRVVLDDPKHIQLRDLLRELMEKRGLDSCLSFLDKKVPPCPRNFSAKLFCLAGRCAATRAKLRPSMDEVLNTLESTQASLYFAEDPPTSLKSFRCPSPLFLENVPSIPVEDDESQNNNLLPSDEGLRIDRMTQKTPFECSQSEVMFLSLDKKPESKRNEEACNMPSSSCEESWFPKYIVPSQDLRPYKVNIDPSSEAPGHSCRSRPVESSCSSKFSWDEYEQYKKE

As for `COc1cc(Nc2cncc(-c3ccc(N)cc3)n2)cc(OC)c1OC` [APA, 6-(4-aminophenyl)-N-(3,4,5-trimethoxyphenyl)pyrazin-2-amine], the remaining binding at 10 µM at FLT4 turned out to be 35%; on CLK4, 27%; at CLK2, 27%; at HIPK1 it was 12%; on HIPK3, 42%; at MAST1, 46%. Also, the remaining binding at 10 µM on IRAK3 came to 46%; at NEK10, 37%; on JAK3_JH1, 19%; at MAP3K11, 22%; on MAP3K9, 8.5%; at CSNK2A2, 29%. For the same compound, the remaining binding at 10 µM on HIPK2 and on ZAK was 22% in each case. Besides, the “recombinant human NAT2 acetylation kinetics, LC-MS/MS of NAPA” value on N-acetyltransferase 2 is “Recombinant assays with human NAT1 and NAT2 further proved APA acetylation to be specifically mediated by NAT2”. Further, the Kd at Aurora kinase A worked out at 13.5 µM.
